Test results: US20110318768A1, “METHOD FOR DETERMINING SENSITIVITY OF TUMOR CELLS TO TYROSINE KINASE INHIBITOR AND COMPUTER PROGRAM PRODUCT” (SYSMEX CORPORATION, priority 2010, published 2011)

What was measured:
Experiment in all cases: Tyrosine kinase activity inhibition rate in cell membrane fraction (Poly-Glu4-Tyr substrate)
Type in all cases: biochemical
[1] = tested on: tyrosine kinase in cell membrane fraction of UACC893; conditions: for Inhibition rate: UACC893, 25 μM kinase inhibitor, 25 μM ATP
Description: (§1) Breast cancer cell lines shown in Table 3 were cultured in a 150 mm dish so as to be about 80% confluent, the cells were recovered using PBS and a scraper, and a cell pellet was obtained by centrifugal operation (900×g, for 5 minutes, at 4° C.). The pellet was frozen with liquid nitrogen and stored at −80° C. until preparation of the measurement sample.
(§2) 500 μl of NP40 (−) solubilized buffer (20 mM HEPES (pH 7.4)), (w/v) % glycerol, 0.2% protease inhibitor cocktail (#P8340: Sigma-Aldrich (product composition: 104 mM AEBSF, 80 μM aprotinin, 4 mM bestatin, 1.4 mM E-64, 2 mM leupeptin, 1.5 mM Pepstatin A), 50 mM NaF and 200 μM Na3VO4) was added to the cell pellet, followed by stirring for 2 seconds three times using a vortex mixer. After being allowed to stand for 10 minutes, the soluble fraction was removed by centrifugal operation (at 20000×g, for 30 minutes, at 4° C.). The obtained pellet was resuspended in 500 μl of NP40 (−) solubilized buffer, the soluble fraction was again removed by centrifugal operation (at 20000×g, for 20 minutes, at 4° C.), and the pellet was washed. The pellet was resuspended by adding 500 μl of NP40 (+) solubilized buffer (a buffer prepared by adding NP-40 to the NP40 (−) solubilized buffer at a final concentration of 1%) to the pellet, pipetting fifty times, and vortexing for 2 seconds three times. After being allowed to stand for 10 minutes, a cell membrane fraction containing a membrane protein was obtained by centrifugal operation (at 20000×g, for 40 minutes, at 4° C.). The protein concentration of the fraction was measured by DC protein assay (#500-0116 JA: Bio-Rad) and the fraction was used as a sample for kinase activity measurement. The sample was frozen with liquid nitrogen and stored at −80° C. until used for the following kinase activity measurement.
(§3) NeutrAvidin Coated Plates (HBC) (96 white plate; #15509: Pierce) were washed three times with 300 μl of TBS-T (20 mM Tris-HCl (pH 7.4)), 150 mM NaCl, 0.1% Tween), and then 100 μl of Poly-Glu4-Tyr biotin conjugate (#12440: Upstate) which had been diluted to 1 μg/ml with TBS (20 mM Tris-HCl (pH 7.4), 150 mM NaCl) was added to the wells. After shaking at 37° C. and 400 rpm for 90 minutes, the wells were washed with 300 μl of TBS-T three times and a measuring plate was obtained.
(§4) The measurement sample was diluted with a kinase buffer (20 mM HEPES (pH 7.4), 25 mM MgCl2, 1.25 mM MnCl2, 250 μM Na3VO4, 12.5 (w/v) % glycerol) so as to adjust the protein concentration to 6.25 μg/ml. The diluted measurement sample was transferred to wells of a 96 well V bottom plate. A DMSO solution (inhibitor concentration: 5 mM) containing one type of tyrosine kinase inhibitors (Inhibitors 1 to 10 shown in Table 6) was added to the wells at a ratio of 1:160 based on the diluted measurement sample solution, followed by mixing thereof. As the control, DMSO was added to the diluted measurement sample at the same ratio as the solution of the inhibitor. The used tyrosine kinase inhibitors are represented as Inhibitors 1 to 10 in Table 6.
(§5) After addition of the inhibitors, a mixed solution of the measurement sample and the inhibitor was allowed to stand at room temperature for 10 minutes. 40 μl of the mixed solution was transferred to wells of the measuring plate and 10 μl of an ATP solution (20 mM HEPES (pH 7.4), […]) as the phosphate group donor was added to the wells.
(§6) The composition of the solution in the wells is as follows: protein concentration: 5 μg/ml, 20 mM HEPES (pH 7.4), 20 mM MgCl2, 1 mM MnCl2, 200 μM Na3VO4, 10 (w/v) % glycerol, 25 μM ATP, 25 μM kinase inhibitor.
(§7) After shaking the measuring plate at 37° C. and 400 rpm for 60 minutes, the solution was removed from the measuring plate, and the wells were washed with 300 μl of TBS-T three times. 100 μl of Starting Block T20 (TBS) (#37543: Pierce) as a blocking solution was added to the wells, followed by blocking at 37° C. and 400 rpm for 10 minutes. The blocking solution was removed from the measuring plate. […]

[2] = tested on: tyrosine kinase in cell membrane fraction of HCC1954; conditions: for Inhibition rate: 25 μM kinase inhibitor, 25 μM ATP
Description: as §1, §2, §3, §4, §5, §6, §7

[3] = tested on: tyrosine kinase in cell membrane fraction of MDA-MB-231; conditions: for Inhibition rate: 25 μM kinase inhibitor, 25 μM ATP
Description: as §1, §2, §3, §4, §5, §6, §7

[4] = tested on: tyrosine kinase in cell membrane fraction of MDA-MB-468; conditions: for Inhibition rate: 25 μM kinase inhibitor, 25 μM ATP
Description: as §1, §2, §3, §4, §5, §6, §7

[5] = tested on: tyrosine kinase in cell membrane fraction of HS578T; conditions: for Inhibition rate: 25 μM kinase inhibitor, 25 μM ATP
Description: as §1, §2, §3, §4, §5, §6, §7

[6] = tested on: tyrosine kinase in cell membrane fraction of HCC202; conditions: for Inhibition rate: 25 μM kinase inhibitor, 25 μM ATP
Description: as §1, §2, §3, §4, §5, §6, §7

[7] = tested on: tyrosine kinase in cell membrane fraction of MDA-MB-453; conditions: for Inhibition rate: 25 μM kinase inhibitor, 25 μM ATP
Description: as §1, §2, §3, §4, §5, §6, §7

[8] = tested on: tyrosine kinase in cell membrane fraction of T47D; conditions: 25 μM kinase inhibitor, 25 μM ATP
Description: as §1, §2, §3, §4, §5, §6, §7

[9] = tested on: tyrosine kinase in cell membrane fraction of BT-474; conditions: for Inhibition rate: 25 μM kinase inhibitor, 25 μM ATP
Description: as §1, §2, §3, §4, §5, §6, §7

[10] = tested on: tyrosine kinase in cell membrane fraction of HCC1419; conditions: for Inhibition rate: 25 μM kinase inhibitor, 25 μM ATP
Description: as §1, §2, §3, §4, §5, §6, §7

[11] = tested on: tyrosine kinase in cell membrane fraction of MCF7; conditions: for Inhibition rate: 25 μM kinase inhibitor, 25 μM ATP
Description: as §1, §2, §3, §4, §5, §6, §7

[12] = tested on: tyrosine kinase in cell membrane fraction of ZR-75-30; conditions: for Inhibition rate: 25 μM kinase inhibitor, 25 μM ATP
Description: as §1, §2, §3, §4, §5, §6, §7

[13] = tested on: tyrosine kinase in cell membrane fraction of ZR-75-1; conditions: for Inhibition rate: 25 μM kinase inhibitor, 25 μM ATP
Description: as §1, §2, §3, §4, §5, §6, §7

[14] = tested on: tyrosine kinase in cell membrane fraction of MDA-MB-436; conditions: for Inhibition rate: 25 μM kinase inhibitor, 25 μM ATP
Description: as §1, §2, §3, §4, §5, §6, §7

[15] = tested on: tyrosine kinase in cell membrane fraction of MDA-MB-157; conditions: for Inhibition rate: 25 μM kinase inhibitor, 25 μM ATP
Description: as §1, §2, §3, §4, §5, §6, §7

[16] = tested on: tyrosine kinase in cell membrane fraction of CAMA-1; conditions: for Inhibition rate: 25 μM kinase inhibitor, 25 μM ATP
Description: as §1, §2, §3, §4, §5, §6, §7

| SMILES | Inhibition rate [1] [%] | Inhibition rate [2] [%] | Inhibition rate [3] [%] | Inhibition rate [4] [%] | Inhibition rate [5] [%] | Inhibition rate [6] [%] | Inhibition rate [7] [%] | Inhibition rate [8] [%] | Inhibition rate [9] [%] | Inhibition rate [10] [%] | Inhibition rate [11] [%] | Inhibition rate [12] [%] | Inhibition rate [13] [%] | Inhibition rate [14] [%] | Inhibition rate [15] [%] | Inhibition rate [16] [%] | further results |
| --- | --- | --- | --- | --- | --- | --- | --- | --- | --- | --- | --- | --- | --- | --- | --- | --- | --- |
| COc1cc2ncnc(Nc3ccc(Oc4ccccc4)cc3)c2cc1OC [Inhibitor 10, 4-(4′-phenoxyanilino)-6,7-dimethoxyquinazoline] | 25.6 | 46.5 | 63.6 | 81.0 | 58.2 | 26.3 | 16.3 | 42.3 | 37.6 | 36.3 | 49.2 | 37.3 | 55.8 | 44.9 | 60.3 | 34.6 | Example 1 Inhibitory capacity of Src inhibitor ([1]; UACC-893): low (the term “low” means a cell line whose inhibition rate of the Src inhibitor is lower than the threshold value (=43.4%)); Example 1 Inhibitory capacity of Src inhibitor [2]: high (the term “high” means a cell line whose inhibition rate of the Src inhibitor is more than the threshold value); Example 1 Inhibitory capacity of Src inhibitor [3]: high (the term “high” means a cell line whose inhibition rate of the Src inhibitor is more than the threshold value); Example 1 Inhibitory capacity of Src inhibitor [4]: high (the term “high” means a cell line whose inhibition rate of the Src inhibitor is more than the threshold value); Example 1 Inhibitory capacity of Src inhibitor [5]: high (the term “high” means a cell line whose inhibition rate of the Src inhibitor is more than the threshold value); Example 1 Inhibitory capacity of Src inhibitor [6]: low (the term “low” means a cell line whose inhibition rate of the Src inhibitor is lower than the threshold value (=43.4%)); Example 1 Inhibitory capacity of Src inhibitor [7]: low (the term “low” means a cell line whose inhibition rate of the Src inhibitor is lower than the threshold value (=43.4%)); Example 1 Inhibitory capacity of Src inhibitor [9]: low (the term “low” means a cell line whose inhibition rate of the Src inhibitor is lower than the threshold value (=43.4%)); Example 1 Inhibitory capacity of Src inhibitor [10]: low (the term “low” means a cell line whose inhibition rate of the Src inhibitor is lower than the threshold value (=43.4%)); Example 1 Inhibitory capacity of Src inhibitor [11]: high (the term “high” means a cell line whose inhibition rate of the Src inhibitor is more than the threshold value); Example 1 Inhibitory capacity of Src inhibitor [12]: low (the term “low” means a cell line whose inhibition rate of the Src inhibitor is lower than the threshold value (=43.4%)); Example 1 Inhibitory capacity of Src inhibitor [13]: high (the term “high” means a cell line whose inhibition rate of the Src inhibitor is more than the threshold value); Example 1 Inhibitory capacity of Src inhibitor [14]: high (the term “high” means a cell line whose inhibition rate of the Src inhibitor is more than the threshold value); Example 1 Inhibitory capacity of Src inhibitor [15]: high (the term “high” means a cell line whose inhibition rate of the Src inhibitor is more than the threshold value); Example 1 Inhibitory capacity of Src inhibitor [16]: low (the term “low” means a cell line whose inhibition rate of the Src inhibitor is lower than the threshold value (=43.4%)) |
| COc1cc2ncnc(Nc3ccc(OCc4ccccc4)cc3)c2cc1OC [Inhibitor 3, 4-(4-benzyloxyanilino)-6,7-dimethoxyquinazoline] | 22.9 | 31.8 | 42.0 | 76.9 | 40.0 | 24.5 | 36.9 | 30.2 | 15.1 | 43.3 | 11.3 | 37.2 | 38.5 | 48.7 | 38.0 | 16.7 |  |
| CCCNC(=O)Nc1ccc(Oc2ncnc3cc(OC)c(OC)cc23)cc1Cl [Inhibitor 7] | 23.9 | 17.6 | 9.7 | 18.5 | 19.4 | 33.4 | 29.4 | 22.0 | 30.3 | 28.4 | 59.1 | 18.5 | 18.3 | 23.1 | 11.2 | 3.4 |  |
